Consider 25 compounds from patent US5886033A, “Use of isoxazole and crotonamide derivatives for the treatment of carcinomatous disorders” (Hoechst Aktiengesellschaft, priority 1995, dated 1999).

Structures are written as SMILES. pIC50: −log10 of the molar value. Where a name gives a salt, the structure may show the parent alone. Read-outs that look alike come from different tables or passages of the source.

Assay [1] relates to HUV-EC-C. The assay can be described thus: Inhibition of proliferation (MTT test), HUV-EC-C / HUVEC endothelial cells. Format: cell-based, human. On the procedure:
(§1) Inhibition of the proliferation of tumor cells (MTT test)
(§2) 1×10^4 cells per well are inoculated into a 96-well microtiter plate. After 24 h, the test substances are added at various concentrations. Each group consists of 4 wells, the control is only incubated with medium. After 65 h, 50 μl of MTT (3-(4,5-dimethyl-2-thiazolyl)-2,5-diphenyl-2H-tetrazolium bromide; 2.5 mg/ml in PBS) are added and, after 7 h, the supernatant is removed. The color formed by the living cells is dissolved by addition of 100 μl of dimethyl sulfoxide/well. The extinction is measured at 492 nm for each well with the aid of a Multiscan photometer 340 CC (Flow). The cell lines used are obtainable as follows from the American Type Culture Collection: HUV-EC-C is ATCC CRL 1730; A-172 is ATCC CRL 1620; L 1210 is ATCC CCL 219; LoVo is ATCC CCL 229; C 6 is ATCC CCL 107 and a rat glioblastoma cell line.
(§3) The mean value is formed from the 4 wells of a group and the IC50 values are calculated from the dose-response curve using the Software 3.0 (Erithacus Software Ltd.).
(Tetrazolium dyes change colour on reduction, which living cells bring about.)

The test system of assay [2] is A-172. The assay can be described thus: Inhibition of the proliferation of tumor cells (MTT test), A-172. Format: cell-based, human. As for the experimental part:
as §1, §2, §3

For assay [3], the system named is LoVo cells. Description: Inhibition of the proliferation of tumor cells (MTT test), LoVo. It is filed as cell-based, human. On the procedure: as §1, §2, §3
Assay [4] relates to C 6. Description: Inhibition of the proliferation of tumor cells (MTT test), C 6. Format: cell-based, rat. On the procedure: as §1, §2, §3
Assay [5] concerns the target T1, Human DHODH (spleen) (Homo sapiens, UniProt Q02127).
T1 construct: Human DHODH (spleen) enzyme activity; from tissue; host or cells: human spleen
The assay can be described thus: Human DHODH (spleen) enzyme activity. Format: biochemical.

Assay [6] relates to L1210. Description: Inhibition of the proliferation of tumor cells (MTT test), L1210. To be noted: Table 2; L1210, leukemia (mouse). It is filed as cell-based. On the procedure:
as §1, §2, §3

Assay [7] has as its system LoVo cells. The assay can be described thus: MTT test on LoVo cells with added uridine. Format: cell-based, human. To be noted: Homo sapiens, LoVo, Table 3. As for the experimental part: as §2, §3
The procedure is as in Example 6; uridine is additionally added to the batches.

The mark [8] stands for this setting: Homo sapiens, HUVEC, Table 4, HUVEC, read-out: HUVEC (tested as described in Example 6, MTT test).
Setting [9] is: Homo sapiens, A 172, Table 4, A172, read-out: A172 (tested as described in Example 6, MTT test).
The mark [10] stands for this setting: Homo sapiens, Table 4, read-out: LoVo (tested as described in Example 6, MTT test).
[11] abbreviates: Rattus norvegicus, C6, Table 4, C 6, read-out: C 6 (tested as described in Example 6, MTT test).
The mark [12] stands for this setting: human DHODH (spleen), read-out: DHODH IC50.
Setting [13] is: Homo sapiens, Endothelial cell, Table 2, HUV-EC-C, endothelial cell, read-out: MTT Test IC50.
Setting [14] is: Homo sapiens, A 172, Table 2, A-172, glioblastoma, read-out: MTT Test IC50.
Where [15] appears, read: Homo sapiens, Table 2, colonic carcinoma, no uridine, read-out: MTT Test IC50.
Setting [16] is: Rattus norvegicus, C6, Table 2, C 6, rat glioblastoma, read-out: MTT Test IC50.

T1 sequence (Q02127 whole entry): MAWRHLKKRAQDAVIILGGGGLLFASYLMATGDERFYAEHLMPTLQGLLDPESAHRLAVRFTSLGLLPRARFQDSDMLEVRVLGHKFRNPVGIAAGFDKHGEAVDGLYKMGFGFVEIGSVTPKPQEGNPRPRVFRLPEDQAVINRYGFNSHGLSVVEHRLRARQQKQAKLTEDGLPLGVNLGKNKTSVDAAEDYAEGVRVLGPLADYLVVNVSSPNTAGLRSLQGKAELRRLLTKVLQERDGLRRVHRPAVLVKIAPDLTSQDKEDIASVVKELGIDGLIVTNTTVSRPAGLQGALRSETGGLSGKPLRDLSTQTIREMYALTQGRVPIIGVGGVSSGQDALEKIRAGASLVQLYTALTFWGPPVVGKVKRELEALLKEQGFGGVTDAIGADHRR

As for `N#CC(C(=O)Nc1ccc(C(F)(F)F)cc1)=C(O)C1CC1` [Compound 5], the pIC50 in assay [1] (setting [8]) was 4.03; in assay [2] (setting [9]) it was 4.52; in assay [3] (setting [10]), 4.47; in assay [4] (setting [11]), 5.30.

Take `CC(C)=CCCC(O)=C(C#N)C(=O)Nc1ccc(C(F)(F)F)cc1` [Compound 25]: the pIC50 in assay [1] (setting [8]) is 3.52; in assay [2] (setting [9]) it was 4.02; in assay [3] (setting [10]) it was 3.51; in assay [4] (setting [11]), 4.06.

For the compound `N#CC(C(=O)Nc1ccc(Oc2ccc(F)cc2)cc1)=C(O)C1CCC1` [Compound 18], the pIC50 is 3.80 in assay [1] (setting [8]), 3.72 in assay [2] (setting [9]), 3.96 in assay [3] (setting [10]) and 4.08 in assay [4] (setting [11]).

Take `Cc1cc(Cl)ccc1Oc1ccc(NC(=O)C(C#N)=C(O)C2CC2)cc1` [Compound 16]: the pIC50 was 3.52 in assay [1] (setting [8]), 4.77 in assay [2] (setting [9]), 5.15 in assay [3] (setting [10]) and 4.44 in assay [4] (setting [11]).

On to `C=CCCC(O)=C(C#N)C(=O)Nc1ccc(C(F)(F)F)cc1` [Compound 17], for which the pIC50 was 3.90 in assay [1] (setting [8]), 4.26 in assay [2] (setting [9]), 4.12 in assay [3] (setting [10]) and 3.73 in assay [4] (setting [11]).

Regarding `C=CCCC(O)=C(C#N)C(=O)Nc1ccc(C)c(C)c1` [Compound 21], the pIC50 in assay [1] (setting [8]) is 3.47; in assay [2] (setting [9]) it was 4.20; in assay [3] (setting [10]), 4.57; in assay [4] (setting [11]), 4.16.

Take `N#CC(C(=O)Nc1ccc(C(F)(F)F)cn1)=C(O)C1CC1` [Compound 23]: the pIC50 was below 3.40 in assay [1] (setting [8]), 4.03 in assay [2] (setting [9]), 4.12 in assay [3] (setting [10]) and 5.15 in assay [4] (setting [11]).

As to `C=CC(O)=C(C#N)C(=O)Nc1ccc(C(F)(F)F)cc1` [Compound 9], the pIC50 in assay [1] (setting [8]) was below 3.40; in assay [2] (setting [9]) it was 3.71; in assay [3] (setting [10]), 3.40; in assay [4] (setting [11]), 4.68.

With `N#CC(C(=O)Nc1ccc(OC(F)(F)F)cc1)=C(O)C1CC1` [Compound 10], the pIC50 in assay [1] (setting [8]) was 3.73; in assay [2] (setting [9]), 4.60; in assay [3] (setting [10]) it was 4.68; in assay [4] (setting [11]), 5.40.

Take `N#CC(C(=O)Nc1ccc(Oc2ccccc2)cc1)=C(O)C1CC1` [Compound 8]: the pIC50 was 3.86 in assay [1] (setting [8]), 4.55 in assay [2] (setting [9]), 4.89 in assay [3] (setting [10]) and 4.74 in assay [4] (setting [11]).

Take `Cc1cc(NC(=O)C(C#N)=C(O)C2CC2)ccc1C(F)(F)F` [Compound 12]: the pIC50 in assay [1] (setting [8]) was 3.49; in assay [2] (setting [9]) it was 4.37; in assay [3] (setting [10]), 4.26; in assay [4] (setting [11]) it was 5.22; in assay [5] (setting [12]), 6.27.

For the compound `Cc1cc(NC(=O)C(C#N)=C(O)C2CC2)ccc1F` [Compound 13], the pIC50 was below 3.40 in assay [1] (setting [8]), 4.49 in assay [2] (setting [9]), 4.82 in assay [3] (setting [10]) and 4.89 in assay [4] (setting [11]).

Regarding `C=CCC(O)=C(C#N)C(=O)Nc1ccc(SC(F)(F)F)cc1` [Compound 19], the pIC50 in assay [1] (setting [8]) is 3.87; in assay [2] (setting [9]) it was 3.93; in assay [3] (setting [10]), 3.77; in assay [4] (setting [11]), 4.49.

Turning to `C#CCCC(O)=C(C#N)C(=O)Nc1ccc(Cl)cn1` [Compound 27], the pIC50 in assay [1] (setting [8]) is below 3.40; in assay [2] (setting [9]), 3.85; in assay [3] (setting [10]), 3.82; in assay [4] (setting [11]) it was 3.90.

Regarding `C=CCC(O)=C(C#N)C(=O)Nc1ccc(F)cc1` [Compound 22], the pIC50 in assay [1] (setting [8]) is below 3.40; in assay [2] (setting [9]), below 3.40; in assay [3] (setting [10]) it was 3.83; in assay [4] (setting [11]), 3.99.

`Cc1cc(NC(=O)C(C#N)=C(O)C2CC2)ccc1C(F)(F)F` [Compound 14]: the pIC50 was 3.71 in assay [1] (Table 4, HUVEC, read-out: HUVEC (tested as described in Example 6, MTT test)); 4.24 in assay [2] (Table 4, A172, read-out: A172 (tested as described in Example 6, MTT test)); 4.21 in assay [3] (Table 4, read-out: LoVo (tested as described in Example 6, MTT test)); 5.15 in assay [4] (Table 4, C 6, read-out: C 6 (tested as described in Example 6, MTT test)).

As for `N#CC(C(=O)Nc1ccc(C#N)cc1)=C(O)C1CC1` [Compound 2, 2-Cyano-3-cyclopropyl-3-hydroxyacrylic acid (4-cyanophenyl)amide sodium salt], the pIC50 in assay [6] was 5.21; in assay [1] (setting [13]), 3.44; in assay [1] (setting [8]), 3.44; in assay [7] (uridine 0 μM), 3.44; in assay [7] (uridine 1000 μM), 3.25; in assay [2] (setting [14]) it was 3.77. For the same compound, the pIC50 in assay [2] (setting [9]) is 3.77; in assay [3] (setting [15]) it was 3.41; in assay [3] (setting [10]), 3.41; in assay [4] (setting [16]), 4.70; in assay [4] (setting [11]) it was 4.70; in assay [5] (setting [12]), 6.20.

For the compound `N#CC(C(=O)Nc1ccc(Br)cc1)=C(O)C1CC1` [Compound 7], the pIC50 is 3.57 in assay [1] (setting [8]), 4.43 in assay [2] (setting [9]), 4.43 in assay [3] (setting [10]) and 4.96 in assay [4] (setting [11]).

As for `C#CCCC(O)=C(C#N)C(=O)Nc1ccc(C(F)(F)F)cc1` [Compound 1, N-(4-Trifluoromethylphenyl)-2-cyano-3-hydroxyhept-2-en-6-yne-carboxamide sodium salt], the pIC50 in assay [6] was 5.04; in assay [1] (setting [13]), 3.79; in assay [1] (setting [8]) it was 3.79; in assay [7] (uridine 0 μM), 3.77; in assay [7] (uridine 1000 μM), 3.56; in assay [2] (setting [14]) it was 4.11. The pIC50 was 4.11 in assay [2] (setting [9]); 3.86 in assay [3] (setting [15]); 3.86 in assay [3] (setting [10]); 4.17 in assay [4] (setting [16]); 4.17 in assay [4] (setting [11]); 6.53 in assay [5].

As for `CC=CC=CC(O)=C(C#N)C(=O)Nc1ccc(C(F)(F)F)cc1` [Compound 26], the pIC50 in assay [1] (setting [8]) was 3.42; in assay [2] (setting [9]), 3.70; in assay [3] (setting [10]) it was 3.84; in assay [4] (setting [11]), 4.62.

For `C=CCC(O)=C(C#N)C(=O)Nc1ccc(C(F)(F)F)cc1` [Compound 11], the pIC50 in assay [1] (setting [8]) was 3.73; in assay [2] (setting [9]) it was 4.26; in assay [3] (setting [10]), 3.80; in assay [4] (setting [11]), 4.24.

`N#CC(C(=O)Nc1ccc(Oc2ccc(F)cc2)cc1)=C(O)C1CCCC1` [Compound 20]: the pIC50 is below 3.40 in assay [1] (setting [8]), 3.80 in assay [2] (setting [9]), 3.92 in assay [3] (setting [10]) and 3.74 in assay [4] (setting [11]).

With `N#CC(C(=O)Nc1ccc(Cl)cc1)=C(O)C1CC1` [Compound 6], the pIC50 in assay [1] (setting [8]) is below 3.40; in assay [2] (setting [9]), 4.60; in assay [3] (setting [10]), 4.62; in assay [4] (setting [11]), 4.96.

As for `N#CC(C(=O)Nc1ccc(-c2ccccc2)cc1)=C(O)C1CC1` [Compound 24], the pIC50 in assay [1] (Homo sapiens, HUVEC, read-out: HUVEC (tested as described in Example 6, MTT test)) was 4.13; in assay [2] (Homo sapiens, A 172, read-out: A172 (tested as described in Example 6, MTT test)), 4.66; in assay [3] (Homo sapiens, read-out: LoVo (tested as described in Example 6, MTT test)), 5.22; in assay [4] (Rattus norvegicus, C6, read-out: C 6 (tested as described in Example 6, MTT test)) it was 4.47.

As to `N#CC(C(=O)Nc1ccc(SC(F)(F)F)cc1)=C(O)C1CC1` [Compound 15], the pIC50 was 4.01 in assay [1] (setting [8]), 4.89 in assay [2] (setting [9]), 4.68 in assay [3] (setting [10]) and 5.70 in assay [4] (setting [11]).
